No end group written: not given here.

The text below walks through data of patent publication US5506340A, “Tumor necrosis factor inhibitors” (Centecor, Inc., priority 1994, dated 1996).

For this experiment, the target named is T1, human TNFα (Homo sapiens, UniProt P01375).
T1 construct: purchased Biosource, Camarillo, Calif
The experiment in a line: p55 receptor/IgG fusion protein binding assay (inhibition of TNFα capture by p55-Ig coated plate). To be noted: TNFα 25 ng/ml preincubated with peptide, read-out: IC50 (concentration necessary to inhibit TNFα by 50%), inhibition of binding of TNFα to p55TNFr-IgG chimeric construct. How it is done:
This assay was designed to identify peptides which bind to human TNFα and thereby prevent the capture of the TNFα by a microtiter plate coated with p55-Ig fusion protein. A constant concentration of human TNFα is preincubated with the test peptide and then incubated on the p55-Ig coated microtiter wells. Bound TNFα is detected using a specific antisera and an alkaline phosphatase-conjugated probe.
A 96-well, U-bottom polyvinylchloride microtiter plate was coated with 50 μl/well of p55-Ig fusion protein at 5 μg/ml in 0.01M sodium phosphate, 0.15M sodium chloride (PBS) by incubation overnight at 4° C. or 2 hours at 37° C. […] 29, 1993 which is incorporated herein by reference. The plate was washed three times with 0.05% Tween-20 in PBS, then blocked, by adding 150 μl/well of assay buffer (10 mM N-2-hydroxyethylpiperazine-N'-[…] (HEPES) pH 7.2, containing 0.1% porcine gelatin, 0.1% Tween-80, and 0.01% sodium azide) and continuing incubation for 1 hour at 37° C. or at 4° C. for 1-7 days.
Lyophilized peptides to be tested were weighed in tared 12×75 mm polystyrene tubes and reconstituted to a concentration of 1.2 mM with assay buffer. Each suspension was sonicated in a water bath for 1-5 minutes and vortexed 15-30 seconds to disperse large particles. Serial dilutions of each peptide suspension were prepared using assay buffer in a 96-well polystyrene microtiter plate. Additional wells received Fab fragment of the mouse/human monoclonal anti-human TNFα antibody cA2 (positive control) or assay buffer (negative control). […] The polystyrene dilution plate was then sealed and incubated 1 hour at room temperature on an orbital mixer set at moderate speed.
Following the sample preincubation, blocker was discarded from the p55-Ig coated plate and blotted dry. Aliquots (50 μl) of each peptide or control were transferred into duplicate wells on the p55-Ig coated plate which was then sealed and incubated 1 hour at 37° C. Duplicate wells containing only assay buffer were included as a plate blank. After incubation the p55-Ig plate was washed three times with 0.05% Tween-20 in PBS.
All incubations were for 1 hour at 37° C. and after each incubation the plate was washed three times with 0.05% Tween-20 in PBS. Fifty microliters of alkaline phosphatase substrate solution (alkaline buffer (Sigma, St. Louis, Mo.) diluted 1:500 in deionized water plus one 5 mg tablet of p-nitrophenyl phosphate (Sigma, St. Louis, Mo.) per 5 ml of diluted buffer) was added to all wells and incubation continued for 20 minutes at room temperature. Color development was stopped by adding to all wells 50 μl of 3N sodium hydroxide. The optical density (OD) at 405 nm was measured on a microtiter plate reader (Molecular Devices Vmax plate reader), with the plate blank wells subtracted as background. The activity of each peptide was then expressed as the percent inhibition of TNFα capture by the p55-Ig plate, relative to the amount of TNFα captured in wells containing only assay buffer (negative control), as follows:
The inhibition of binding of TNFα to p55TNFr-IgG chimeric construct was performed as described above using several embodiments of the invention. The peptides were tested to determine the concentration necessary to inhibit TNFα by 50% (IC50) relative to TNFα activity in the absence of the peptide.

T1 sequence (P01375 77-233 limits assumed): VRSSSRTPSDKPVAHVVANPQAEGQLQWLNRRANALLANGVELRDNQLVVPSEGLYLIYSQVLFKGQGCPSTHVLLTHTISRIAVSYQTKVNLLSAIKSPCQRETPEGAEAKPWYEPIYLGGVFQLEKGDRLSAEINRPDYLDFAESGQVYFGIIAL

As for MVYPGLQEPWLHSMY-NH2, the IC50 was 850 µM.

PGLQEPWLHSMYHGA-NH2: the IC50 came to 600 µM.

Regarding QEPWLHSMYHGAAFQ-NH2, the IC50 was 310 µM.

In the case of WLHSMYHGAAFQLTQ-NH2, the IC50 is 480 µM.

YLAHEVQLFSSQYPF-NH2: the IC50 turned out to be 370 µM.
